Results on 5 compounds are retold here after paper doi:10.1101/2023.03.24.534094v2 (biorxiv, 2023).

SMILES strings stand for the structures. Where two headings read alike, the source gives them in different places.

Targets include CK2a2 (Homo sapiens, UniProt P19784); MELK (Homo sapiens, UniProt Q14680); CaMKK2 (Homo sapiens, UniProt Q96RR4); LOK (Homo sapiens, UniProt O94804); MSK1b (Homo sapiens, UniProt O75582); MARK3 (Homo sapiens, UniProt P27448); CLK3 (Homo sapiens, UniProt P49761).
Common to all, as to experiment: biochemical
Another assay deals with T1, MER (Homo sapiens, UniProt Q12866).
T1 sequence (Q12866 1-999): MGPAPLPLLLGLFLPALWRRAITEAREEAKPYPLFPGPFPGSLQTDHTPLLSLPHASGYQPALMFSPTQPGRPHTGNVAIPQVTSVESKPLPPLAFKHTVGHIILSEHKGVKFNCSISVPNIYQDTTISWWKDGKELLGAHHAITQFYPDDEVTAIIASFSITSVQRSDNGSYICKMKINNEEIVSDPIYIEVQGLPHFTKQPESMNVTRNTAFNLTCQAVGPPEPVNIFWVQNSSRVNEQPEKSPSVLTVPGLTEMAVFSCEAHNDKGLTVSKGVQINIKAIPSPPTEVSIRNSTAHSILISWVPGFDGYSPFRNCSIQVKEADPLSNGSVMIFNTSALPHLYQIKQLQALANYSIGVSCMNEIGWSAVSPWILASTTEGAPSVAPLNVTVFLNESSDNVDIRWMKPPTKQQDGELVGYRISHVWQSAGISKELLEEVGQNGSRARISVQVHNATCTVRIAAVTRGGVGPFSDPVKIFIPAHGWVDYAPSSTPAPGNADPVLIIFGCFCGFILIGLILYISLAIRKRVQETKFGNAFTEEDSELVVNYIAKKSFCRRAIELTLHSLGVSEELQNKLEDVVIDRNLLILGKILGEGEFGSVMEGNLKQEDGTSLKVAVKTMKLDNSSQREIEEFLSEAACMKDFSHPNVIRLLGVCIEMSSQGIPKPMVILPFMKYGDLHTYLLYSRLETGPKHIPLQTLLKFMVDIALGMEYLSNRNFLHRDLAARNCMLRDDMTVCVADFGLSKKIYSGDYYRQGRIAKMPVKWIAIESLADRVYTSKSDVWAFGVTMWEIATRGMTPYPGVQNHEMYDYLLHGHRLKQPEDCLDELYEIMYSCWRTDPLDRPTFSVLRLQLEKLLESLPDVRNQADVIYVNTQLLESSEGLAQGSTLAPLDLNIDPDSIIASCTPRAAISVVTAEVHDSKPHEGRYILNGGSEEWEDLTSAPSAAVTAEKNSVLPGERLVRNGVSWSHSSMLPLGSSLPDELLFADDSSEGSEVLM

A further assay concerns the target T2, BRPF1 (Homo sapiens, UniProt P55201).
T2 sequence (P55201 1-1214): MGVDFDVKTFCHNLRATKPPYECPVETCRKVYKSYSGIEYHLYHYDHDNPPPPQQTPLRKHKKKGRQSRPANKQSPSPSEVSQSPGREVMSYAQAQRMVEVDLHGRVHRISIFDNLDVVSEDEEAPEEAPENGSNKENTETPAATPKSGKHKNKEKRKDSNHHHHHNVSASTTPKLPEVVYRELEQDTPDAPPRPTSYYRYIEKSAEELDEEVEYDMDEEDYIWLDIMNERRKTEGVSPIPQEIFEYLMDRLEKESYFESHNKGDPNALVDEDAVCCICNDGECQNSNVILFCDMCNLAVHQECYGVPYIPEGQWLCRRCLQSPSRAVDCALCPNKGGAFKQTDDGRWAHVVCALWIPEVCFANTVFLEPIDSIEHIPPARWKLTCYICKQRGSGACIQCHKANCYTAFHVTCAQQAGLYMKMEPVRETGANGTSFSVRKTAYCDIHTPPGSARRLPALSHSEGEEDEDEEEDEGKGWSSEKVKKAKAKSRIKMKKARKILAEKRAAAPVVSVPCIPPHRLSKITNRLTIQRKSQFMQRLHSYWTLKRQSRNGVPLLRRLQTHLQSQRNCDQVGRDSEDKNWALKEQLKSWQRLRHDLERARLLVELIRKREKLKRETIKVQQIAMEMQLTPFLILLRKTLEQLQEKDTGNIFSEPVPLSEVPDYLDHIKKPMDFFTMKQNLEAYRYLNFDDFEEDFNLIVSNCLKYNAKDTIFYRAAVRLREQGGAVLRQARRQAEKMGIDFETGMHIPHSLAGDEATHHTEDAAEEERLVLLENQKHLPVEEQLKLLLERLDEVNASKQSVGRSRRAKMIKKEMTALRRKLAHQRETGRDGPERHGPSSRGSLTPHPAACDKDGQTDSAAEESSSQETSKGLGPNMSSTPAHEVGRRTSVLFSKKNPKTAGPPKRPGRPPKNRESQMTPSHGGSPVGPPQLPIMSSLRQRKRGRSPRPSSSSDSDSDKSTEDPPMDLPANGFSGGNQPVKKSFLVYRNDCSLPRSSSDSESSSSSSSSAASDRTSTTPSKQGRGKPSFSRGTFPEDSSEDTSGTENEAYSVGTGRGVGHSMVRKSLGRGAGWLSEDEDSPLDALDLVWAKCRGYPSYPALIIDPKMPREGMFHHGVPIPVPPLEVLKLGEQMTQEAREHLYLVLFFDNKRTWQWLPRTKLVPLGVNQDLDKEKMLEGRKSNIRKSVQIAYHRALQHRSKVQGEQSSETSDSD

Sequence of CaMKK2 (Q96RR4 whole entry): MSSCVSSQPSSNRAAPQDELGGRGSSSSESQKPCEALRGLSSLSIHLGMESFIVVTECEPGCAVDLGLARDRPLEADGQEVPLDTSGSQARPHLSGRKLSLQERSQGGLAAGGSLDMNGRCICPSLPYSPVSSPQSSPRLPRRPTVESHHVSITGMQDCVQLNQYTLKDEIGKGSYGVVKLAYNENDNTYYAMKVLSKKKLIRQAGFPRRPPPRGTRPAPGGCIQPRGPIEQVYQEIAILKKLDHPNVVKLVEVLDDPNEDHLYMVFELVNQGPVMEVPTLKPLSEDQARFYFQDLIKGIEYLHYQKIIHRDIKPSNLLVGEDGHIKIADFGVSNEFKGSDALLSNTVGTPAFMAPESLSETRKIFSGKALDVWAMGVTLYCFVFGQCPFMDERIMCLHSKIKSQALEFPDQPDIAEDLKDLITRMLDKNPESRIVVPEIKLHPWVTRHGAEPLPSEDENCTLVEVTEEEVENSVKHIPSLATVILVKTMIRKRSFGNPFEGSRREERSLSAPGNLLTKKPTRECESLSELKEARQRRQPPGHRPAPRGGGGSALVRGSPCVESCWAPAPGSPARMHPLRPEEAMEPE
Sequence of CK2a2 (P19784 whole entry): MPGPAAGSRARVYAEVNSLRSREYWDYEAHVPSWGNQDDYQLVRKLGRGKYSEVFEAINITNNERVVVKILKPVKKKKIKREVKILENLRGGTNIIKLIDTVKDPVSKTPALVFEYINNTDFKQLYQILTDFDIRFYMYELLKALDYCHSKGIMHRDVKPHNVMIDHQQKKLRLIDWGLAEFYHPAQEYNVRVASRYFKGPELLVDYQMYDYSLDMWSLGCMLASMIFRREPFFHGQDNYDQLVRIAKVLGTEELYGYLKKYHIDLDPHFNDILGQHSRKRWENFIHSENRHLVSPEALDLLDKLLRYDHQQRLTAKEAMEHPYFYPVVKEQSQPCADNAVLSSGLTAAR
Sequence of MSK1b (O75582 whole entry): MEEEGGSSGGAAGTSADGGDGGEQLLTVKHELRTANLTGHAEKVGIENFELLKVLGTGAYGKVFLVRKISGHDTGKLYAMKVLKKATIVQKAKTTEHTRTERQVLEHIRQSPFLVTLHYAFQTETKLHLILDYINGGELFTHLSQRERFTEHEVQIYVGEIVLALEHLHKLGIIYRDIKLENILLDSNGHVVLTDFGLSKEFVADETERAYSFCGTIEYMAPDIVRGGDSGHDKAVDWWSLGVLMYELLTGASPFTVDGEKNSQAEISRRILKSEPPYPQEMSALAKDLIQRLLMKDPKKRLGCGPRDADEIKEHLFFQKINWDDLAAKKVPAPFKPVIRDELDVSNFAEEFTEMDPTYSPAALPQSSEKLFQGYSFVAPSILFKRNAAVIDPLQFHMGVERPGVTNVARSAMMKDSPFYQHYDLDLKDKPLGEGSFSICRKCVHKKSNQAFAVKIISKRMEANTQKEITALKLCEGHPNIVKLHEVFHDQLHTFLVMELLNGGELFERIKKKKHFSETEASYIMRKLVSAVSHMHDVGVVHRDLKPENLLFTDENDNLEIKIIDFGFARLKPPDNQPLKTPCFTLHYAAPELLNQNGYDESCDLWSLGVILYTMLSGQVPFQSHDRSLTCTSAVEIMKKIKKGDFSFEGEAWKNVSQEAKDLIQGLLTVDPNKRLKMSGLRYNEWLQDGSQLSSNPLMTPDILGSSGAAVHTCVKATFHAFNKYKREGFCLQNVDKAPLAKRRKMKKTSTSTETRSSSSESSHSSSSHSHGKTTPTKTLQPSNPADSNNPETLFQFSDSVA
Sequence of MELK (Q14680 whole entry): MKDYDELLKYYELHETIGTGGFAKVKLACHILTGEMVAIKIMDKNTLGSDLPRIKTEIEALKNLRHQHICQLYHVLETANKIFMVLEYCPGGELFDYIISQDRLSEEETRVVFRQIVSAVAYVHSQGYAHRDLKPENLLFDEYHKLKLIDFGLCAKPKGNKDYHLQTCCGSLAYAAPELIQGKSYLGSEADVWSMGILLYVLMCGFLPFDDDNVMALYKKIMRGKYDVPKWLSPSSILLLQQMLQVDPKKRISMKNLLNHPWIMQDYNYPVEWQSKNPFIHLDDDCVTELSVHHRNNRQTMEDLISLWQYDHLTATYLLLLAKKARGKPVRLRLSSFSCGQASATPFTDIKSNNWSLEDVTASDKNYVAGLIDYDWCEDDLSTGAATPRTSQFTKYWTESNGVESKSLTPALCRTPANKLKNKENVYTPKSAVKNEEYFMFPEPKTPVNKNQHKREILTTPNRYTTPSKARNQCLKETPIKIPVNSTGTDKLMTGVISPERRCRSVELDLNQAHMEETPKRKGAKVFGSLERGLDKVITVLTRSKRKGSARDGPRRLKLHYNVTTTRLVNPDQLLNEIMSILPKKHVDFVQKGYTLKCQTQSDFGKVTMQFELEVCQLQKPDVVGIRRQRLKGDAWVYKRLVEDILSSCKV
Sequence of LOK (O94804 whole entry): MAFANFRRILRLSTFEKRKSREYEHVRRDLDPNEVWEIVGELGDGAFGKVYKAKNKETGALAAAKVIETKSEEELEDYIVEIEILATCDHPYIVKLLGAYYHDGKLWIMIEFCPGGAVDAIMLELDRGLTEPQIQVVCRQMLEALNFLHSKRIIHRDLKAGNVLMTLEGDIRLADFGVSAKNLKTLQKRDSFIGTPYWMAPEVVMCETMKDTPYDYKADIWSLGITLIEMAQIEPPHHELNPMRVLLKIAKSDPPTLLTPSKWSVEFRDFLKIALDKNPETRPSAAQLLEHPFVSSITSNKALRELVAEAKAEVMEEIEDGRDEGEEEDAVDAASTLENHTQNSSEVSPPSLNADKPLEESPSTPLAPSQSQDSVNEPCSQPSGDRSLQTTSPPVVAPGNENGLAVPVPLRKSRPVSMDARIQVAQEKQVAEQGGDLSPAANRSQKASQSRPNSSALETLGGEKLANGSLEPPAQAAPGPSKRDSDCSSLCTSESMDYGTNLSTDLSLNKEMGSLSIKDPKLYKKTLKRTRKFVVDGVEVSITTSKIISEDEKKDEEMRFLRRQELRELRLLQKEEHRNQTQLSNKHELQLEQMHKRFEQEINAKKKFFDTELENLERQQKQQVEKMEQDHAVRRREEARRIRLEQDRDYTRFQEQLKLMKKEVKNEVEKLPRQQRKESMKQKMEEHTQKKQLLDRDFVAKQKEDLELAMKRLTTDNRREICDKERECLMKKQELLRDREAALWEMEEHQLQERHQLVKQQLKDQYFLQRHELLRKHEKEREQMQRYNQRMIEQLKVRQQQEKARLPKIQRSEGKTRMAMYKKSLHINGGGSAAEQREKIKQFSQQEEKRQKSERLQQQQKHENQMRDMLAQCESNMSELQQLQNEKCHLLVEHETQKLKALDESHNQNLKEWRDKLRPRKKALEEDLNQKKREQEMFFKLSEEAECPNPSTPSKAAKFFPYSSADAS
Sequence of CLK3 (P49761 whole entry): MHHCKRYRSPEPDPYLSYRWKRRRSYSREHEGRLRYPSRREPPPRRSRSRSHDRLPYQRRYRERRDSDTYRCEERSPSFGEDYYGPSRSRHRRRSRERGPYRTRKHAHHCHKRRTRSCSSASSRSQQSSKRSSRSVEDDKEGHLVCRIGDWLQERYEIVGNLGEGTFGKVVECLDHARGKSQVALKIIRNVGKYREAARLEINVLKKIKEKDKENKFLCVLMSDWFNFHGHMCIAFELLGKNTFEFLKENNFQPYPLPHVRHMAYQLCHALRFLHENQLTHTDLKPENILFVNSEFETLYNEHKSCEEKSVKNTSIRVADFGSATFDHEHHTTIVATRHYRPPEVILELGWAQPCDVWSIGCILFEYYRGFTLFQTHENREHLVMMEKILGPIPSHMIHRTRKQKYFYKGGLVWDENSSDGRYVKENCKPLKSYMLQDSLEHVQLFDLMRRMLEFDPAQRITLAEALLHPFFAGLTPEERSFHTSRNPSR
Sequence of MARK3 (P27448 whole entry): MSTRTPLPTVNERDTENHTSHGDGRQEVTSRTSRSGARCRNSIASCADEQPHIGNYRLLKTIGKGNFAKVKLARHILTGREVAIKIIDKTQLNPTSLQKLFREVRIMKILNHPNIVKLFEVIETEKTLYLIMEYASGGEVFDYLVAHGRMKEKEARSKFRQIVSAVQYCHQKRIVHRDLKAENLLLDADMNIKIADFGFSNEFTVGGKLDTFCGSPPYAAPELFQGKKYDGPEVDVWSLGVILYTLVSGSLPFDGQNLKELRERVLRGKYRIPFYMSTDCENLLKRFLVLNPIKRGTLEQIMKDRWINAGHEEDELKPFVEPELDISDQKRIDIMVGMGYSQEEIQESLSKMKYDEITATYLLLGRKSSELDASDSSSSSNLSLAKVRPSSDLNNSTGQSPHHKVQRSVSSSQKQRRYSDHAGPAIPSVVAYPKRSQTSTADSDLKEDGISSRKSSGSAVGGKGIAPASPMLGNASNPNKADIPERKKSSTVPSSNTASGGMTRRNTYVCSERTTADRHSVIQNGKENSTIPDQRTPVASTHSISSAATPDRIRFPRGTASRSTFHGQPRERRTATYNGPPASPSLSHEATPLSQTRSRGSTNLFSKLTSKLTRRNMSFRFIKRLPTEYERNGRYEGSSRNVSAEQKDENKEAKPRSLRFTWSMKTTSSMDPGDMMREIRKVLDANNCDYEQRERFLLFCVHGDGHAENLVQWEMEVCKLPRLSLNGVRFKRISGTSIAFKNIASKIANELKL

Turning to `CNc1ncc2cc(-c3cc(Cl)ccc3Cl)c(=O)n(CCCCN)c2n1` [compound 8, 8-(4-Aminobutyl)-6-(2,5-dichlorophenyl)-2-(methylamino)pyrido[2,3-d]pyrimidin-7(8H)-one], the ΔTm at 10 µM on MER (read-out: dTm 8) is 0.5 °C; at BRPF1 (read-out: dTm 8) it was -0.5 °C; at CK2a2 (read-out: dTm 8), 0 °C; on MELK (read-out: dTm 8) it was 4.6 °C; on CaMKK2 (read-out: dTm 8), 0.6 °C; on LOK (read-out: dTm 8), 2.5 °C. In addition, the figures for the ΔTm at 10 µM on MSK1b (read-out: dTm 8), on MARK3 (read-out: dTm 8) and on CLK3 (read-out: dTm 8) were 2.1 °C, 2.7 °C and 0.4 °C, respectively.

Take `CNc1ncc2cc(-c3cc(Cl)ccc3Br)c(=O)n(CCCCN)c2n1` [compound 10, 8-(4-Aminobutyl)-6-(2-bromo-5-chlorophenyl)-2-(methylamino)pyrido[2,3-d]pyrimidin-7(8H)-one]: the ΔTm at 10 µM is 0.7 °C at MER (read-out: dTm 10); -0.3 °C on BRPF1 (read-out: dTm 10); 0.2 °C at CK2a2 (read-out: dTm 10); 4.3 °C on MELK (read-out: dTm 10); 0.7 °C on CaMKK2 (read-out: dTm 10); 3.5 °C on LOK (read-out: dTm 10). In addition, the ΔTm at 10 µM on MSK1b (read-out: dTm 10) was determined as 2.1 °C; at MARK3 (read-out: dTm 10) it was 3.7 °C; at CLK3 (read-out: dTm 10) it was 0.4 °C.

Regarding `CNc1ncc2cc(-c3cc(Br)ccc3Br)c(=O)n(CCCCN)c2n1` [compound 11, 8-(4-Aminobutyl)-6-(2,5-dibromophenyl)-2-(methylamino)pyrido[2,3-d]pyrimidin-7(8H)-one], the ΔTm at 10 µM at MER (read-out: dTm 11) is 0.6 °C; on BRPF1 (read-out: dTm 11), -0.7 °C; at CK2a2 (read-out: dTm 11) it was 0.1 °C; on MELK (read-out: dTm 11), 4.2 °C; on CaMKK2 (read-out: dTm 11), 0.6 °C; on LOK (read-out: dTm 11), 3.6 °C. Also, the ΔTm at 10 µM came out at 2 °C on MSK1b (read-out: dTm 11), 3.6 °C on MARK3 (read-out: dTm 11) and 0.4 °C on CLK3 (read-out: dTm 11).

`CNc1ncc2cc(-c3cc(C(F)(F)F)ccc3Cl)c(=O)n(CCCCN)c2n1` [compound 9, 8-(4-Aminobutyl)-6-(2-chloro-5-(trifluoromethyl)phenyl)-2-(methylamino)pyrido[2,3-d]pyrimidin-7(8H)-one]: the ΔTm at 10 µM at MER (read-out: dTm 9) is 0.2 °C; on BRPF1 (read-out: dTm 9) it was -0.4 °C; at CK2a2 (read-out: dTm 9) it was 0 °C; at MELK (read-out: dTm 9) it was 1.6 °C; at CaMKK2 (read-out: dTm 9) it was 0.4 °C; on LOK (read-out: dTm 9) it was 1.6 °C. In addition, the ΔTm at 10 µM turned out to be 0.9 °C at MSK1b (read-out: dTm 9), 0.7 °C on MARK3 (read-out: dTm 9) and 0.4 °C on CLK3 (read-out: dTm 9).

With `CNc1ncc2cc(-c3cc(F)c(-c4cccc(C)n4)cc3F)c(=O)n(CCCCN)c2n1` [compound 12, 8-(4-Aminobutyl)-6-(2,5-difluoro-4-(6-methylpyridin-2-yl)phenyl)-2-(methylamino)pyrido[2,3-d]pyrimidin-7(8H)-one], the ΔTm at 10 µM was 1.1 °C on MER (read-out: dTm 12); -1.5 °C at BRPF1 (read-out: dTm 12); -1 °C at CK2a2 (read-out: dTm 12); 6.1 °C on MELK (read-out: dTm 12); 0 °C on CaMKK2 (read-out: dTm 12); -0.4 °C on LOK (read-out: dTm 12). In addition, the ΔTm at 10 µM was 1 °C at MSK1b (read-out: dTm 12), 5.3 °C at MARK3 (read-out: dTm 12) and -0.3 °C on CLK3 (read-out: dTm 12).
